Assay results reported in patent US20240245673A1, “Papain-like protease (PLpro) inhibitors” (Pfizer Inc., priority 2022, published 2024).
Read-outs that look alike come from different tables or passages of the source.

Target: SARS-CoV-2 Papain like protease (PLpro) (Severe acute respiratory syndrome coronavirus 2 (2019-nCoV) (SARS-CoV-2), UniProt P0DTD1)
Experiment: Papain Like Protease (PLpro) biochemical assay with profluorogenic substrate Z-RLRGG-AMC
Details: SARS-CoV-2 PLpro 6.25 nM, 25 μM Z-RLRGG-AMC substrate, 60 minute reaction

SMILES: Cc1ccccc1C(=O)NC(C)c1cc(-c2cnn(C(F)F)c2)nc2ccccc12 (stereo not shown) [Example 105, N-(1-{2-[1-(difluoromethyl)-1H-pyrazol-4-yl]quinolin-4-yl}ethyl)-2-methylbenzamide]
- IC50 (IC50 (μM)): 0.266 µM

SMILES: COCc1cc(-c2cc(C(C)NC(=O)c3ccccc3C)c3ccccc3n2)cs1 (stereo not shown) [Example 106, N-(1-{2-[5-(methoxymethyl)thiophen-3-yl]quinolin-4-yl}ethyl)-2-methylbenzamide]
- IC50 (read-out: IC50): 0.241 µM

SMILES: Cc1ccccc1C(=O)NC(C)c1cc(-c2cc(C3CC3)nn2C)nc2ccccc12 (stereo not shown) [Example 107, N-{1-[2-(3-cyclopropyl-1-methyl-1H-pyrazol-5-yl)quinolin-4-yl]ethyl}-2-methylbenzamide]
- IC50 (read-out: IC50): 0.757 µM

SMILES: Cc1ccccc1C(=O)NC(C)c1cc(-c2c(C#N)cnn2C)nc2ccccc12 (stereo not shown) [Example 108, N-{1-[2-(4-cyano-1-methyl-1H-pyrazol-5-yl)quinolin-4-yl]ethyl}-2-methylbenzamide]
- IC50 (read-out: IC50): 0.931 µM

SMILES: COc1cc(-c2cc(C(C)NC(=O)c3ccccc3C)c3ccccc3n2)ccn1 (stereo not shown) [Example 109]
- IC50 (read-out: IC50): 0.28 µM

SMILES: CCn1cc(-c2cc(C(C)NC(=O)c3ccccc3C)c3ccccc3n2)cn1 (stereo not shown) [Example 110, N-{1-[2-(1-ethyl-1H-pyrazol-4-yl)quinolin-4-yl]ethyl}-2-methylbenzamide]
- IC50 (IC50 (μM)): 0.224 µM

SMILES: Cc1ccccc1C(=O)NC(C)c1cc(-c2ccc3nonc3c2)nc2ccccc12 (stereo not shown) [Example 111, N-{1-[2-(2,1,3-benzoxadiazol-5-yl)quinolin-4-yl]ethyl}-2-methylbenzamide]
- IC50 (read-out: IC50): 17.3 µM

SMILES: COCCn1cc(-c2cc(C(C)NC(=O)c3ccccc3C)c3ccccc3n2)cn1 (stereo not shown) [Example 112, N-(1-{2-[1-(2-methoxyethyl)-1H-pyrazol-4-yl]quinolin-4-yl}ethyl)-2-methylbenzamide]
- IC50 (read-out: IC50): 0.294 µM

SMILES: Cc1ccccc1C(=O)NC(C)c1cc(-c2cnn(C(C)(C)C)c2)nc2ccccc12 (stereo not shown) [Example 113, N-{1-[2-(1-tert-butyl-1H-pyrazol-4-yl)quinolin-4-yl]ethyl}-2-methylbenzamide]
- IC50 (read-out: IC50): 0.79 µM

SMILES: Cc1ccccc1C(=O)NC(C)c1cc(-c2cccnc2)nc2ccccc12 (stereo not shown) [Example 114, 2-methyl-N-{1-[2-(pyridin-3-yl)quinolin-4-yl]ethyl}benzamide]
- IC50 (read-out: IC50): 0.877 µM

SMILES: CCn1cc(-c2cc(C(C)NC(=O)c3ccccc3C)c3ccccc3n2)c(C)n1 (stereo not shown) [Example 115, N-{1-[2-(1-ethyl-3-methyl-1H-pyrazol-4-yl)quinolin-4-yl]ethyl}-2-methylbenzamide]
- IC50 (read-out: IC50): 1.08 µM

SMILES: Cc1ccccc1C(=O)NC(C)c1cc(-c2ccc3oc(=O)[nH]c3c2)nc2ccccc12 (stereo not shown) [Example 116, 2-methyl-N-{1-[2-(2-oxo-2,3-dihydro-1,3-benzoxazol-5-yl)quinolin-4-yl]ethyl} benzamide]
- IC50 (read-out: IC50): 0.406 µM

SMILES: Cc1cc(-c2cc(C(C)NC(=O)c3ccccc3C)c3ccccc3n2)c[nH]1 (stereo not shown) [Example 117, 2-methyl-N-{1-[2-(5-methyl-1H-pyrrol-3-yl)quinolin-4-yl]ethyl}benzamide]
- IC50 (read-out: IC50): 0.412 µM

SMILES: Cc1ccccc1C(=O)NC(C)c1cc(-c2ccc3ncnn3c2)nc2ccccc12 (stereo not shown) [Example 118, 2-methyl-N-{1-[2-([1,2,4]triazolo[1,5-a]pyridin-6-yl)quinolin-4-yl]ethyl}benzamide]
- IC50 (read-out: IC50): 1.32 µM

SMILES: Cc1ccccc1C(=O)NC(C)c1cc(-c2ccsc2)nc2ccccc12 (stereo not shown) [Example 119, 2-methyl-N-{1-[2-(thiophen-3-yl)quinolin-4-yl]ethyl} benzamide]
- IC50 (read-out: IC50): 0.244 µM

SMILES: Cc1ccccc1C(=O)NC(C)c1cc(-c2cnn(CC(F)F)c2)nc2ccccc12 (stereo not shown) [Example 120, N-(1-{2-[1-(2,2-difluoroethyl)-1H-pyrazol-4-yl]quinolin-4-yl}ethyl)-2-methylbenzamide]
- IC50 (read-out: IC50): 0.345 µM

SMILES: COCCn1nc(C)c(-c2cc(C(C)NC(=O)c3ccccc3C)c3ccccc3n2)c1C (stereo not shown) [Example 121, N-(1-{2-[1-(2-methoxyethyl)-3,5-dimethyl-1H-pyrazol-4-yl]quinolin-4-yl}ethyl)-2-methylbenzamide]
- IC50 (read-out: IC50): 1.42 µM

SMILES: Cc1ccccc1C(=O)NC(C)c1cc(-c2ccc(NS(C)(=O)=O)cc2)nc2ccccc12 (stereo not shown) [Example 122, N-[1-(2-{4-[(methanesulfonyl)amino]phenyl}quinolin-4-yl)ethyl]-2-methylbenzamide]
- IC50 (read-out: IC50): 0.201 µM

SMILES: Cc1ccccc1C(=O)NC(C)c1cc(-c2cnn(CC3(C#N)CC3)c2)nc2ccccc12 (stereo not shown) [Example 123, N-[1-(2-{1-[(1-cyanocyclopropyl)methyl]-1H-pyrazol-4-yl}quinolin-4-yl)ethyl]-2-methylbenzamide]
- IC50 (read-out: IC50): 0.329 µM

SMILES: Cc1ccccc1C(=O)NC(C)c1cc(-c2cc(C(C)C)no2)nc2ccccc12 (stereo not shown) [Example 124, 2-methyl-N-(1-{2-[3-(propan-2-yl)-1,2-oxazol-5-yl]quinolin-4-yl}ethyl)benzamide]
- IC50 (read-out: IC50): 0.635 µM

SMILES: Cc1ccccc1C(=O)NC(C)c1cc(-c2cnn(CCN3CCOCC3)c2)nc2ccccc12 (stereo not shown) [Example 125, 2-methyl-N-[1-(2-{1-[2-(morpholin-4-yl)ethyl]-1H-pyrazol-4-yl}quinolin-4-yl)ethyl]benzamide]
- IC50 (read-out: IC50): 0.294 µM

SMILES: Cc1ccccc1C(=O)NC(C)c1cc(-c2cn(C)nc2C)nc2ccccc12 (stereo not shown) [Example 126, N-{1-[2-(1,3-dimethyl-1H-pyrazol-4-yl)quinolin-4-yl]ethyl}-2-methylbenzamide]
- IC50 (read-out: IC50): 0.845 µM

SMILES: Cc1ccccc1C(=O)NC(C)c1cc(-c2ccc(N)nc2)nc2ccccc12 (stereo not shown) [Example 127, N-{1-[2-(6-aminopyridin-3-yl)quinolin-4-yl]ethyl}-2-methylbenzamide]
- IC50 (read-out: IC50): 1.82 µM

SMILES: COC(=O)c1c[nH]c(-c2cc(C(C)NC(=O)c3ccccc3C)c3ccccc3n2)c1 (stereo not shown) [Example 128, methyl 5-{4-[1-(2-methylbenzamido)ethyl]quinolin-2-yl}-1H-pyrrole-3-carboxylate]
- IC50 (read-out: IC50): 0.164 µM

SMILES: Cc1ccccc1C(=O)NC(C)c1cc(-c2cnn(C)c2C)nc2ccccc12 (stereo not shown) [Example 129, N-{1-[2-(1,5-dimethyl-1H-pyrazol-4-yl)quinolin-4-yl]ethyl}-2-methylbenzamide]
- IC50 (read-out: IC50): 0.666 µM

SMILES: Cc1ccccc1C(=O)NC(C)c1cc(-c2cncnc2)nc2ccccc12 (stereo not shown) [Example 130, 2-methyl-N-{1-[2-(pyrimidin-5-yl)quinolin-4-yl]ethyl} benzamide]
- IC50 (read-out: IC50): 3.1 µM

SMILES: Cc1ccccc1C(=O)NC(C)c1cc(-c2cnn3cccnc23)nc2ccccc12 (stereo not shown) [Example 131, 2-methyl-N-{1-[2-(pyrazolo [1,5-a]pyrimidin-3-yl)quinolin-4-yl]ethyl}benzamide]
- IC50 (read-out: IC50): 2.91 µM

SMILES: Cc1ccccc1C(=O)NC(C)c1cc(-c2cn(C)nc2C(F)(F)F)nc2ccccc12 (stereo not shown) [Example 132, 2-methyl-N-(1-{2-[1-methyl-3-(trifluoromethyl)-1H-pyrazol-4-yl]quinolin-4-yl}ethyl) benzamide]
- IC50 (read-out: IC50): 0.844 µM

SMILES: COC(=O)c1ccc(-c2cc(C(C)NC(=O)c3ccccc3C)c3ccccc3n2)o1 (stereo not shown) [Example 133, methyl 5-{4-[1-(2-methylbenzamido)ethyl]quinolin-2-yl}furan-2-carboxylate]
- IC50 (read-out: IC50): 0.392 µM

SMILES: Cc1ccccc1C(=O)NC(C)c1cc(-c2ccc3c(c2)nnn3C)nc2ccccc12 (stereo not shown) [Example 134]
- IC50 (read-out: IC50): 0.432 µM

SMILES: Cc1ccccc1C(=O)NC(C)c1cc(-c2cnn(C)n2)nc2ccccc12 (stereo not shown) [Example 135, 2-methyl-N-{1-[2-(2-methyl-2H-1,2,3-triazol-4-yl)quinolin-4-yl]ethyl}benzamide]
- IC50 (read-out: IC50): 0.855 µM
